Experimental data as given in US20190211002A1, “NOVEL TRIAZOLE DERIVATIVES” (Bayer CropScience Aktiengesellschaft, priority 2016, published 2019).

Legend:
[1] = tested on: Blumeria graminis f sp. hordei; experiment: Example E: in vivo preventive Blumeria test (barley); conditions: 168 h, 500 ppm of active ingredient, preventive spray, evaluated 7 days after inoculation, read-out: efficacy
Experimental: • Solvent: 49 parts by weight of N,N-dimethylacetamide • Emulsifier: 1 part by weight of alkylaryl polyglycol ether To produce a suitable preparation of active compound, 1 part by weight of active compound or active compound combination was mixed with the stated amounts of solvent and emulsifier, and the concentrate was diluted with water to the desired concentration. To test for preventive activity, young plants were sprayed with the preparation of active compound or active compound combination at the stated rate of application. After the spray coating had been dried, the plants were dusted with spores of Blumeria graminis f sp. hordei. The plants were placed in the greenhouse at a temperature of approximately 18° C. and a relative atmospheric humidity of approximately 80% to promote the development of mildew pustules. The test was evaluated 7 days after the inoculation.

Puccinia recondita = experiment: Example A: in vivo preventive test on Puccinia recondita (brown rust on wheat); conditions: 264 h, 500 ppm of active ingredient, preventive spray, evaluated 11 days after inoculation, read-out: efficacy
Experimental: (§1) The test is evaluated 11 days after the inoculation.

[2] = LogP by HPLC on reversed phase columns (EEC directive 79/831 Annex V.A8); assay type: physicochemical; conditions: method [a]: LC-UV, acidic range, 0.1% formic acid in water and acetonitrile as eluent; for chromatographic logP: reversed phase HPLC column
Experimental: Measurement of LogP values was performed according to EEC directive 79/831 Annex V.A8 by HPLC (High Performance Liquid Chromatography) on reversed phase columns with the following methods: • ^[a] […] Lambda-max-values were determined using UV-spectra from 200 nm to 400 nm and the peak values of the chromatographic signals.

Septoria tritici = experiment: Example G: in vivo 5 days preventive Septoria tritici test (wheat), comparison vs. WO-A 2010/146116; conditions: inoculated 5 days after spraying, evaluated 21 days after inoculation
Experimental: • Solvent: 49 parts by weight of N,N-dimethylacetamide • Emulsifier: 1 part by weight of alkylaryl polyglycol ether To produce a suitable preparation of active compound, 1 part by weight of active compound or active compound combination is mixed with the stated amounts of solvent and emulsifier, and the concentrate is diluted with water to the desired concentration. To test for preventive and long-lasting activity, young plants are sprayed with a preparation of active compound or active compound combination at the stated rate of application. After the spray coating has been dried, the plants are placed in the greenhouse at a temperature of approximately 15° C. and a relative atmospheric humidity of approximately 80%. 5 days later the plants are sprayed with a spore suspension of Septoria tritici. The plants remain for 48 hours in an incubation cabinet at approximately 20° C. and a relative atmospheric humidity of approximately 100% and afterwards for 60 hours at approximately 15° C. in a translucent incubation cabinet at a relative atmospheric humidity of approximately 100%. Then the plants are placed in the greenhouse at a temperature of approximately 15° C. and a relative atmospheric humidity of approximately 80%. The test is evaluated 21 days after the inoculation.

Uromyces appendiculatus = experiment: Example D: in vivo preventive test on Uromyces appendiculatus (bean rust); conditions: 264 h, 500 ppm of active ingredient, preventive spray, evaluated 11 days after inoculation, read-out: efficacy
Experimental: as §1

Sphaerotheca fuliginea [3] = experiment: Example C: in vivo preventive test on Sphaerotheca fuliginea (powdery mildew on cucurbits); conditions: Podosphaera fuliginea, 360 h; 500 ppm of active ingredient; gherkin; preventive spray; evaluated 15 days after inoculation; read-out: efficacy
Experimental: The test is evaluated 15 days after the inoculation.

Sphaerotheca fuliginea [4] = experiment: Example F: in vivo preventive test on Sphaerotheca (cucumbers), comparison vs. known phenoxy-phenyl compounds; conditions: rate of application 10 ppm, evaluated 7 days after inoculation
Experimental: • Solvent: 24.5 parts by weight of acetone • 24.5 parts by weight of dimethylacetamide • Emulsifier: 1 part by weight of alkylaryl polyglycol ether
To produce a suitable preparation of active compound, 1 part by weight of active compound is mixed with the above stated amounts of solvent and emulsifier, and the concentrate is diluted with water to the desired concentration.
(§2) To test for preventive activity, young plants are sprayed with the preparation of active compound at the stated rate of application. After the spray coating has dried on, the plants are inoculated with an aqueous spore suspension of Sphaerotheca fuliginea. The plants are then placed in a greenhouse at approximately 23° C. and a relative atmospheric humidity of approximately 70%.
The test is evaluated 7 days after the inoculation.

Sphaerotheca fuliginea [5] = experiment: Example H: in vivo preventive test on Sphaerotheca (cucumbers), comparison vs. WO-A 2010/146116; conditions: evaluated 7 days after inoculation
Experimental: as §2, with “To produce a suitable preparation of active compound, 1 part by weight of active compound is mixed with the stated amounts of solvent and emulsifier, and the concentrate is diluted with water to the desired concentration. To” for “To”, “70%. The test is evaluated 7 days after the inoculation.” for “70%.”

For FC(F)(F)c1nc(Oc2ccc(S(F)(F)(F)(F)F)cc2)ccc1C1(Cn2cncn2)OCCO1 [I.11], the pest or weed control at 500 ppm [1] was 70 to 79%, the pest or weed control at 500 ppm (Puccinia recondita) was 90 to 100% and the chromatographic logP [2] was 3.54. It also gave an Efficacy in % (Septoria tritici; rate of application 100 ppm) of 71%, an Efficacy in % (Septoria tritici; rate of application 500 ppm) of 100% and a pest or weed control at 500 ppm (Uromyces appendiculatus) of 90 to 100%. It also gave a pest or weed control at 500 ppm (Sphaerotheca fuliginea [3]) of 90 to 100%.
Compound Clc1ccc(Oc2cc(Cl)c(C3(Cn4cncn4)OCCO3)cn2)cc1 [drawing 80, reference compound] has an Efficacy in % (Septoria tritici; rate of application 100 ppm) of 50% and an Efficacy in % (Septoria tritici; rate of application 500 ppm) of 80%.
For CC(O)(Cn1cncn1)c1ccc(Oc2ccc(Cl)cc2)cc1C(F)(F)F (centres unmarked) [reference compound], the Efficacy in % (Sphaerotheca fuliginea [4]) was 30%.
Clc1ccc(Oc2cc(Cl)c(C3(Cn4cncn4)OCCO3)cn2)cc1 [drawing 85, reference compound] showed an Efficacy in % (Sphaerotheca fuliginea [5]; rate of application 10 ppm) of 14% and an Efficacy in % (Sphaerotheca fuliginea [5]; rate of application 100 ppm) of 100%.
FC(F)(F)c1nc(Oc2ccc(Cl)cc2)ccc1C1(Cn2cncn2)OCCO1 [I.04, 6-(4-chlorophenoxy)-3-[2-(1,2,4-triazol-1-ylmethyl)-1,3-dioxolan-2-yl]-2-(trifluoromethyl)-pyridine] gave a pest or weed control at 500 ppm [1] of 90 to 100%, a pest or weed control at 500 ppm (Puccinia recondita) of 90 to 100% and a chromatographic logP [2] of 3.25. The Efficacy in % (Septoria tritici; rate of application 100 ppm) was 86%, the Efficacy in % (Septoria tritici; rate of application 500 ppm) was 100% and the pest or weed control at 500 ppm (Uromyces appendiculatus) was 90 to 100%. For the same compound, the Efficacy in % (Sphaerotheca fuliginea [4]) was 73%, the pest or weed control at 500 ppm (Sphaerotheca fuliginea [3]) was 90 to 100% and the Efficacy in % (Sphaerotheca fuliginea [5]; rate of application 10 ppm) was 73%. For the same compound, the Efficacy in % (Sphaerotheca fuliginea [5]; rate of application 100 ppm) was 100%.
With CCC1COC(Cn2cncn2)(c2ccc(Oc3ccc(C(F)(F)F)cc3)nc2C(F)(F)F)O1 (centres unmarked) [I.07, 3-[4-ethyl-2-(1,2,4-triazol-1-ylmethyl)-1,3-dioxolan-2-yl]-2-(trifluoromethyl)-6-[4-(trifluoromethyl)phenoxy]pyridine] the pest or weed control at 500 ppm [1] was 90 to 100%, the pest or weed control at 500 ppm (Puccinia recondita) was 90 to 100% and the chromatographic logP [2] was 3.96. For the same compound, the pest or weed control at 500 ppm (Uromyces appendiculatus) was 90 to 100% and the pest or weed control at 500 ppm (Sphaerotheca fuliginea [3]) was 90 to 100%.
Compound CC1COC(Cn2cncn2)(c2ccc(Oc3ccc(Br)cc3)nc2C(F)(F)F)O1 (centres unmarked) [I.16, 6-(4-bromophenoxy)-3-[4-methyl-2-(1,2,4-triazol-1-ylmethyl)-1,3-dioxolan-2-yl]-2-(trifluoromethyl)pyridine] has a pest or weed control at 500 ppm [1] of 90 to 100%, a pest or weed control at 500 ppm (Puccinia recondita) of 90 to 100% and a LogP [2] of 3.55. The chromatographic logP [2] was 3.59, the pest or weed control at 500 ppm (Uromyces appendiculatus) was 90 to 100% and the pest or weed control at 500 ppm (Sphaerotheca fuliginea [3]) was 90 to 100%.
Work on FC(F)(F)c1nc(Oc2ccc(Cl)cc2)ccc1C1(Cn2nc[nH]c2=S)OCCO1 [I-S.02, 2-[[2-[6-(4-chlorophenoxy)-2-(trifluoromethyl)-3-pyridyl]-1,3-dioxolan-2-yl]methyl]-4H-1,2,4-triazole-3-thione] yielded a pest or weed control at 500 ppm [1] of 90 to 100%, a pest or weed control at 500 ppm (Puccinia recondita) of 90 to 100% and a chromatographic logP [2] of 3.06. It also gave a pest or weed control at 500 ppm (Uromyces appendiculatus) of 90 to 100% and a pest or weed control at 500 ppm (Sphaerotheca fuliginea [3]) of 90 to 100%.
In the case of FC(F)(F)c1ccc(Oc2ccc(C3(Cn4nc[nH]c4=S)OCCO3)c(C(F)(F)F)n2)cc1 [I-S.01, 2-[[2-[2-(trifluoromethyl)-6-[4-(trifluoromethyl)phenoxy]-3-pyridyl]-1,3-dioxolan-2-yl]methyl]-4H-1,2,4-triazole-3-thione], the pest or weed control at 500 ppm [1] is reported as 90 to 100%, the pest or weed control at 500 ppm (Puccinia recondita) is reported as 90 to 100% and the chromatographic logP [2] is reported as 3.18. For the same compound, the pest or weed control at 500 ppm (Uromyces appendiculatus) was 90 to 100% and the pest or weed control at 500 ppm (Sphaerotheca fuliginea [3]) was 90 to 100%.
FC(F)(F)c1nc(Oc2ccc(Br)cc2)ccc1C1(Cn2cncn2)OCCO1 [I.02] gave a pest or weed control at 500 ppm [1] of 90 to 100%, a pest or weed control at 500 ppm (Puccinia recondita) of 90 to 100% and a chromatographic logP [2] of 3.35. For the same compound, the Efficacy in % (Septoria tritici; rate of application 100 ppm) was 93%, the Efficacy in % (Septoria tritici; rate of application 500 ppm) was 100% and the pest or weed control at 500 ppm (Uromyces appendiculatus) was 90 to 100%. The pest or weed control at 500 ppm (Sphaerotheca fuliginea [3]) was 90 to 100%.
FC(F)(F)c1ccc(Oc2ccc(C3(Cn4cncn4)OCCO3)c(C(F)(F)F)n2)cc1 [I.14, 3-[2-(1,2,4-triazol-1-ylmethyl)-1,3-dioxolan-2-yl]-2-(trifluoromethyl)-6-[4-(trifluoromethyl)phenoxy]pyridine] showed a pest or weed control at 500 ppm [1] of 90 to 100%, a pest or weed control at 500 ppm (Puccinia recondita) of 90 to 100% and a chromatographic logP [2] of 3.29. For the same compound, the Efficacy in % (Septoria tritici; rate of application 100 ppm) was 100%, the Efficacy in % (Septoria tritici; rate of application 500 ppm) was 100% and the pest or weed control at 500 ppm (Uromyces appendiculatus) was 90 to 100%. For the same compound, the pest or weed control at 500 ppm (Sphaerotheca fuliginea [3]) was 90 to 100%, the Efficacy in % (Sphaerotheca fuliginea [5]; rate of application 10 ppm) was 75% and the Efficacy in % (Sphaerotheca fuliginea [5]; rate of application 100 ppm) was 100%.
